Measured values as given in ChEMBL document CHEMBL2390902, “Discovery of 1-(1,3,5-triazin-2-yl)piperidine-4-carboxamides as inhibitors of soluble epoxide hydrolase” (Bioorg Med Chem Lett, 2013).

Tests used:
Rattus norvegicus [1] = test: Free maximum concentration of drug in rat at 20 mg/kg, po; type: ADME, organism-based; set-up: dose 20 mg/kg, route oral; details: in vivo
[2] = target: Melanocortin receptor 4 (Homo sapiens) (UniProt P32245); test: Inhibition of human MC4 receptor at 1 uM relative to control
[3] = target: Muscarinic acetylcholine receptor M3 (Homo sapiens) (UniProt P20309); test: Inhibition of human M3 receptor at 1 uM relative to control
[4] = target: Voltage-dependent L-type calcium channel subunit alpha-1C (Homo sapiens, UniProt Q13936); test: Inhibition of CaV1.2 (unknown origin)
[5] = Cmax in rat at 20 mg/kg, po; type: ADME, organism-based; set-up: dose 20 mg/kg, route oral; details: in vivo
[6] = target: Sodium-dependent noradrenaline transporter (Homo sapiens) (UniProt P23975); test: Inhibition of human norepinephrine transporter at 1 uM relative to control
Homo sapiens [7] = organism: Homo sapiens; test: Inhibition of human P2X receptor at 1 uM relative to control
[8] = target: 5-hydroxytryptamine receptor 1B (Homo sapiens) (UniProt P28222); test: Inhibition of human 5-HT1B receptor at 1 uM relative to control
[9] = target: Sodium-dependent dopamine transporter (Homo sapiens) (UniProt Q01959); test: Inhibition of human dopamine transporter at 1 uM relative to control
[10] = target: 5-hydroxytryptamine receptor 5A (Homo sapiens) (UniProt P47898); test: Inhibition of human 5-HT5A receptor at 1 uM relative to control
Rattus norvegicus [11] = test: Dose normalized AUC in rat at 2 mg/kg, iv; type: ADME, organism-based; set-up: dose 2 mg/kg, route intravenous; details: in vivo
Cytochrome P450 2C8 = Cytochrome P450 2C8 (Homo sapiens, UniProt P10632); test: Inhibition of CYP2C8 (unknown origin); type: ADME
[12] = target: Adrenergic receptor alpha-2 (Homo sapiens) (UniProt P08913+P18825+P18089); test: Inhibition of human alpha2 receptor at 1 uM relative to control
[13] = Fraction unbound in rat plasma; type: ADME, cell-free
[14] = target: Beta-1 adrenergic receptor (Homo sapiens) (UniProt P08588); test: Inhibition of human beta1 receptor at 1 uM relative to control
[15] = target: 5-hydroxytryptamine receptor 1A (Homo sapiens) (UniProt P08908); test: Inhibition of human 5-HT1A receptor at 1 uM relative to control
[16] = target: Mu-type opioid receptor (Homo sapiens) (UniProt P35372); test: Inhibition of human mu opioid receptor at 1 uM relative to control
[17] = Cmax in rat at 0.2 mg/kg, po; type: ADME, organism-based; set-up: dose 0.2 mg/kg, route oral; details: in vivo
[18] = target: Neuropeptide Y receptor type 1 (Homo sapiens) (UniProt P25929); test: Inhibition of human Y1 receptor at 1 uM relative to control
[19] = target: Histamine H2 receptor (Homo sapiens) (UniProt P25021); test: Inhibition of human histamine H2 receptor at 1 uM relative to control
[20] = target: Muscarinic acetylcholine receptor M1 (Homo sapiens) (UniProt P11229); test: Inhibition of human M1 receptor at 1 uM relative to control
Homo sapiens [21] = organism: Homo sapiens; test: Inhibition of human sigma receptor at 1 uM relative to control
Homo sapiens [22] = organism: Homo sapiens; test: Inhibition of human chloride channel at 1 uM relative to control
Epoxide hydrolase 1 = Epoxide hydrolase 1 (Homo sapiens, UniProt P07099)
[23] = target: 5-hydroxytryptamine receptor 6 (Homo sapiens) (UniProt P50406); test: Inhibition of human 5-HT6 receptor at 1 uM relative to control
[24] = target: Cholecystokinin receptor type A (Homo sapiens) (UniProt P32238); test: Inhibition of human CCK1 receptor at 1 uM relative to control
[25] = target: C-X-C chemokine receptor type 2 (Homo sapiens) (UniProt P25025); test: Inhibition of human CXCR2 receptor at 1 uM relative to control
[26] = target: D(2) dopamine receptor (Homo sapiens) (UniProt P14416); test: Inhibition of human dopamine D2S receptor at 1 uM relative to control
Rattus norvegicus [27] = test: Free maximum concentration of drug in rat at 2 mg/kg, po; type: ADME, organism-based; set-up: dose 2 mg/kg, route oral; details: in vivo
Rattus norvegicus [28] = test: Free maximum concentration of drug in rat at 0.2 mg/kg, po; type: ADME, organism-based; set-up: dose 0.2 mg/kg, route oral; details: in vivo
[29] = Oral bioavailability in rat; type: ADME, organism-based; details: in vivo
[30] = target: T1, Bifunctional epoxide hydrolase 2 (Homo sapiens, UniProt P34913)
T1 sequence (P34913 whole entry): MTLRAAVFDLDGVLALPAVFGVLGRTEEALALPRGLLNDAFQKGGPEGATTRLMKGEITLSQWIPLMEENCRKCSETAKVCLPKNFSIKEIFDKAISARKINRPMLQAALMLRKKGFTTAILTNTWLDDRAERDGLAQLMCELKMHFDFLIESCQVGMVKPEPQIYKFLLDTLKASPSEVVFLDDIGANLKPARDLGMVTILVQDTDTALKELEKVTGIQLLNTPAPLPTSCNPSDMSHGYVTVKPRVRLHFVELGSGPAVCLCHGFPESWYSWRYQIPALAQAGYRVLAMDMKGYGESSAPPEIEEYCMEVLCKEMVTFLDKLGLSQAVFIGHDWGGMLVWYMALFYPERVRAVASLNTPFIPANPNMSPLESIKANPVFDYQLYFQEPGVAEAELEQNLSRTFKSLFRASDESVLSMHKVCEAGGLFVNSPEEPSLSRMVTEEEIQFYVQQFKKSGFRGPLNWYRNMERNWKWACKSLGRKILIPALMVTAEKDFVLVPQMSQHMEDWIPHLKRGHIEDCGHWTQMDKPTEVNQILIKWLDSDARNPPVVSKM
Description: Inhibition of human soluble epoxide hydrolase overexpressed in HEK293F cells using EET as substrate assessed as formation of DHET incubated for 30 mins prior to substrate addition measured after 60 mins by ELISA

Homo sapiens [31] = organism: Homo sapiens; test: Inhibition of human GABA receptor at 1 uM relative to control
Homo sapiens [32] = organism: Homo sapiens; test: Inhibition of human BZD receptor at 1 uM relative to control
[33] = target: D(1A) dopamine receptor (Homo sapiens) (UniProt P21728); test: Inhibition of human dopamine D1 receptor at 1 uM relative to control
[34] = target: Muscarinic acetylcholine receptor M2 (Homo sapiens) (UniProt P08172); test: Inhibition of human M2 receptor at 1 uM relative to control
[35] = Volume of distribution at steady state in rat at 2 mg/kg, iv; type: ADME, organism-based; set-up: dose 2 mg/kg, route intravenous; details: in vivo, read-out: Vdss
[36] = target: Histamine H1 receptor (Homo sapiens) (UniProt P35367); test: Inhibition of human histamine H1 receptor at 1 uM relative to control
[37] = target: Beta-2 adrenergic receptor (Homo sapiens) (UniProt P07550); test: Inhibition of human beta2 receptor at 1 uM relative to control
[38] = Half life in rat at 2 mg/kg, iv; type: ADME, organism-based; set-up: dose 2 mg/kg, route intravenous; details: in vivo
[39] = target: Adenosine receptor A2a (Homo sapiens) (UniProt P29274); test: Inhibition of human adenosine A2A receptor at 1 uM relative to control
Rattus norvegicus [40] = test: In vivo inhibition of soluble epoxide hydrolase in rat assessed as increase in leukotoxin/leukotoxin diol ratio in plasma at 0.2 to 20 mg/kg, po measured after 4 hrs relative to vehicle-treated control; type: functional; details: dose mg/kg 0.2-20
[41] = Plasma clearance in rat at 2 mg/kg, iv; type: ADME, organism-based; set-up: dose 2 mg/kg, route intravenous

Chain of Muscarinic acetylcholine receptor M3 (Homo sapiens) (P20309 whole entry, looked up): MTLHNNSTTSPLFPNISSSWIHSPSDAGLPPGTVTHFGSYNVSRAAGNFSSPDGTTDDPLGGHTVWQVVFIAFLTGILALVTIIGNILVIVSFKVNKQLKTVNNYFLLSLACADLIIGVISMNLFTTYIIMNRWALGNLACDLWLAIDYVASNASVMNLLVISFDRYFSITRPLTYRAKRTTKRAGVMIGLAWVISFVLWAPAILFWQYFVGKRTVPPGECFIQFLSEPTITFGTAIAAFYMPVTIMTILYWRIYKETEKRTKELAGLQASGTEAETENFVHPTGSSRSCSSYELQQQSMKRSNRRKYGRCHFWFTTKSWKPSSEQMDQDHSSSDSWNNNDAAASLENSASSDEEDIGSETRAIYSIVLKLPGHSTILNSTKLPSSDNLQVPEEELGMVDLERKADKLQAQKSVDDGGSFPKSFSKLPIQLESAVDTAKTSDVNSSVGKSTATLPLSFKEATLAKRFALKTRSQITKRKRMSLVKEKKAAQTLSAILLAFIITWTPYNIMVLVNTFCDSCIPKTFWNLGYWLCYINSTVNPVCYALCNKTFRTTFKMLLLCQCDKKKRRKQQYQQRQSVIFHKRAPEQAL
Chain of Muscarinic acetylcholine receptor M1 (Homo sapiens) (P11229 whole entry): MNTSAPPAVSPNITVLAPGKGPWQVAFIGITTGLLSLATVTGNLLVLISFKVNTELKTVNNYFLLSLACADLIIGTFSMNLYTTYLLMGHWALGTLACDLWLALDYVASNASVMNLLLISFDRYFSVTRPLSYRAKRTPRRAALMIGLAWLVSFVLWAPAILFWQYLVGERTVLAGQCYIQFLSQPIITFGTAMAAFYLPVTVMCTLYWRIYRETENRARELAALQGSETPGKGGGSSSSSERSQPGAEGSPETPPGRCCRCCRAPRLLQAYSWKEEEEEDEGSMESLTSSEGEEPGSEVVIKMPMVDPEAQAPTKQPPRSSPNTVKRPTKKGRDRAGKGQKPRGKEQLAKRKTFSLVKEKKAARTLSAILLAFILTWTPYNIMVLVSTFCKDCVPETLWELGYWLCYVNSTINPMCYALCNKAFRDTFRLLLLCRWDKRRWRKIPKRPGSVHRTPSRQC
Chain of Epoxide hydrolase 1 (P07099 whole entry): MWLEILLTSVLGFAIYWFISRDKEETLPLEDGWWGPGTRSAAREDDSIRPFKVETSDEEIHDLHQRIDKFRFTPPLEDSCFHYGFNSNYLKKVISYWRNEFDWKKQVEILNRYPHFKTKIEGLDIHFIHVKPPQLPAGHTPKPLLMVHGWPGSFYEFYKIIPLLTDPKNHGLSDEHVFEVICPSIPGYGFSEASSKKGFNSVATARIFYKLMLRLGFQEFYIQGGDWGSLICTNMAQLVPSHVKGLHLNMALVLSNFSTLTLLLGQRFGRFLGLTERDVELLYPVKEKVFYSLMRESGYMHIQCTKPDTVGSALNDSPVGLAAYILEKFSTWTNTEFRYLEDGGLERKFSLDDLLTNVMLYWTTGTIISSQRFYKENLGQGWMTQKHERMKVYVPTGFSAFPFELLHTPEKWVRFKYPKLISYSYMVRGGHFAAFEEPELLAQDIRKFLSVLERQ
Chain of 5-hydroxytryptamine receptor 6 (Homo sapiens) (P50406 whole entry): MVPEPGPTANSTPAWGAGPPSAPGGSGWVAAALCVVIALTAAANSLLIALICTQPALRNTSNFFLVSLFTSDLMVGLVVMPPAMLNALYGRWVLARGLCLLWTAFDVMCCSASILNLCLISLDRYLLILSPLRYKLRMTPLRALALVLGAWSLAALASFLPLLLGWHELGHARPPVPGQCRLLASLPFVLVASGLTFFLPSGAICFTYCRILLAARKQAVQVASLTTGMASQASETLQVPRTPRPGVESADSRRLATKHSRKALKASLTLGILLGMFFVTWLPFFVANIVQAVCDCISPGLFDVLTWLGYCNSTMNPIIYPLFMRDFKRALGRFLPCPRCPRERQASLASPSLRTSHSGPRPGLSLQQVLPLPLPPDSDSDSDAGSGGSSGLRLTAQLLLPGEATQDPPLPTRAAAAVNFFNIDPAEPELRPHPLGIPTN
Chain of Sodium-dependent noradrenaline transporter (Homo sapiens) (P23975 whole entry): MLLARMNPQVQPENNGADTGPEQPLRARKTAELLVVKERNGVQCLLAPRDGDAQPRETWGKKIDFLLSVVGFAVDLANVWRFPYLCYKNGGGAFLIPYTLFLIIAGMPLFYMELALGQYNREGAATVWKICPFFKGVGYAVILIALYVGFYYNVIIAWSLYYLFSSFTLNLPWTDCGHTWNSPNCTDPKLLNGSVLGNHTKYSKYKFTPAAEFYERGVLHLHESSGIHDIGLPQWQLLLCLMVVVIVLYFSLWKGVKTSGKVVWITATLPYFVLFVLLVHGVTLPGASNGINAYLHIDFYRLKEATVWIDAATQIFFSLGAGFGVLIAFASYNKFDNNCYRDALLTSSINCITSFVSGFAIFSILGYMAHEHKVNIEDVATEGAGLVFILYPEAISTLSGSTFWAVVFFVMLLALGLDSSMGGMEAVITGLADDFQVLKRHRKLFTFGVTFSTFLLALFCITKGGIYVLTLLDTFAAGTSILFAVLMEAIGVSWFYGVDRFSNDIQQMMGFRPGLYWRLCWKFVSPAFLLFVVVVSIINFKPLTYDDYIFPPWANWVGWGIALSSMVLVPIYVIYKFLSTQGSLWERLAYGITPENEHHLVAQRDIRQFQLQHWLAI
Chain of Voltage-dependent L-type calcium channel subunit alpha-1C (Q13936 whole entry): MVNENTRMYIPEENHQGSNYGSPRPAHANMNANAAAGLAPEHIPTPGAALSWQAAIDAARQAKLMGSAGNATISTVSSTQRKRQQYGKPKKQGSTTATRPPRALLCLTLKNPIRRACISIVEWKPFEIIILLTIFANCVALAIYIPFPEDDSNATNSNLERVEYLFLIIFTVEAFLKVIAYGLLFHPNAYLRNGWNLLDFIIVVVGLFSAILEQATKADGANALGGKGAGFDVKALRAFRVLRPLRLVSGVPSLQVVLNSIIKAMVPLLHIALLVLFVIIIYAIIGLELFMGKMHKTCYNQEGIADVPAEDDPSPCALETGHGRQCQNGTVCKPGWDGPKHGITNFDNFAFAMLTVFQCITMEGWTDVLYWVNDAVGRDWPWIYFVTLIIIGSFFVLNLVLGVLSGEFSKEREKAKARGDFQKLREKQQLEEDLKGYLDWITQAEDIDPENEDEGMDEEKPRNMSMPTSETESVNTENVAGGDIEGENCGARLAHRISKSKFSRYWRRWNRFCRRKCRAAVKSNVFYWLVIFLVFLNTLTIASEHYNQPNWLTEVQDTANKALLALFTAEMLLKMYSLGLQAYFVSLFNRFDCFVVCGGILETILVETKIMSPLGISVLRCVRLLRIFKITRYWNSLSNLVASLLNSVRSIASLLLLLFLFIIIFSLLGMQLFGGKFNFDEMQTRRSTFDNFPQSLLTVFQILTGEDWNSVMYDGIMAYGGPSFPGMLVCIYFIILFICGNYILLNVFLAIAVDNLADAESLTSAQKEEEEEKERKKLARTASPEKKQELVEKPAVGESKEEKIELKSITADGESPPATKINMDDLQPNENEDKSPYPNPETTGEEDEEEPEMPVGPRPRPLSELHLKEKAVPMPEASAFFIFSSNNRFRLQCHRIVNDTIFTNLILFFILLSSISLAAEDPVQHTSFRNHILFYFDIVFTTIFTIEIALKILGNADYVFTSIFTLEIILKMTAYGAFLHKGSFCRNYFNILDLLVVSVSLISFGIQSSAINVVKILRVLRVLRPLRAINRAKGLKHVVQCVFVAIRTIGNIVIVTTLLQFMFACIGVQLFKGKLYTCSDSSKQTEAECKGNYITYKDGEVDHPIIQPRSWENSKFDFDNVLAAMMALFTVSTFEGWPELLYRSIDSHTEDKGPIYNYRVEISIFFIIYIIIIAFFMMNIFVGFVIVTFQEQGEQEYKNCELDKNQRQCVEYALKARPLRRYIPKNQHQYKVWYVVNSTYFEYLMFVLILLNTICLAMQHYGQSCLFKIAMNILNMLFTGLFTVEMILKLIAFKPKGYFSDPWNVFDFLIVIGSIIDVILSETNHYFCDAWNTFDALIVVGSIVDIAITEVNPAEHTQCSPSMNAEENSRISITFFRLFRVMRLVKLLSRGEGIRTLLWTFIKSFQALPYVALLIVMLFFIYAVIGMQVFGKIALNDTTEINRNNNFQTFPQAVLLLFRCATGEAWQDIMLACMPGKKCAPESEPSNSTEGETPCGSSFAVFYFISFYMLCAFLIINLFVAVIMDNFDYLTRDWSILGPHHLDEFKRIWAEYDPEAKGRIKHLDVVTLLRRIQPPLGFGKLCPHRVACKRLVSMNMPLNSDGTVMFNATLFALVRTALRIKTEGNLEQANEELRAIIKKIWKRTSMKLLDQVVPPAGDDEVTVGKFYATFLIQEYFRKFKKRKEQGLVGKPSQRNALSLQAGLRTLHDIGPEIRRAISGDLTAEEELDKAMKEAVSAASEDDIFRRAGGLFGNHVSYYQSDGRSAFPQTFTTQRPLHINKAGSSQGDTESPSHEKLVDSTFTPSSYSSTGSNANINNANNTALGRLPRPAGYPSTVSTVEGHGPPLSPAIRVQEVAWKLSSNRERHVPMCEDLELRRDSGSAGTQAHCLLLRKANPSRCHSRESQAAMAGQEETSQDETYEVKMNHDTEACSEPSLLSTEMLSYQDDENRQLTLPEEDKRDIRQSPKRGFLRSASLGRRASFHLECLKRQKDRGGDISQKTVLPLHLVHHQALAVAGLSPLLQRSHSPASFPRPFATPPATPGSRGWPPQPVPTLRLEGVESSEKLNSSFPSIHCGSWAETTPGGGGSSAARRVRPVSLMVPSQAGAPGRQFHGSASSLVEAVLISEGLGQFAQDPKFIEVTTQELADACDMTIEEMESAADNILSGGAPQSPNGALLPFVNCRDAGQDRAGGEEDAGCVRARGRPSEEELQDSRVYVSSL

Which results are given for `CNc1nc(C)nc(N2CCC(C(=O)NCc3ccc(Br)cc3OC(F)(F)F)CC2)n1`?
fCmax (Rattus norvegicus [1]): 24 nM; inhibition [2]: < 50%; inhibition [3]: < 50%; IC50 [4]: > 10 µM; Cmax [5]: 1.49 µM; inhibition [6]: < 50%; inhibition (Homo sapiens [7]): < 50%; inhibition [8]: < 50%; inhibition [9]: < 50%; inhibition [10]: < 50%; AUC/dose (Rattus norvegicus [11]): 1.3 kg·h/L; IC50 (Cytochrome P450 2C8): > 30 µM; inhibition [12]: < 50%; fraction unbound [13]: 0.015; inhibition [14]: < 50%; inhibition [15]: < 50%; inhibition [16]: < 50%; Cmax [17]: 0.016 µM; inhibition [18]: < 50%; inhibition [19]: < 50%; inhibition [20]: < 50%; inhibition (Homo sapiens [21]): < 50%; inhibition (Homo sapiens [22]): < 50%; IC50 (Epoxide hydrolase 1): > 50 µM; inhibition [23]: < 50%; inhibition [24]: < 50%; inhibition [25]: < 50%; inhibition [26]: < 50%; fCmax (Rattus norvegicus [27]): 3 nM; fCmax (Rattus norvegicus [28]): 0.25 nM; bioavailability [29]: 100%; IC50 [30]: 0.003 µM; inhibition (Homo sapiens [31]): < 50%; inhibition (Homo sapiens [32]): < 50%; inhibition [33]: < 50%; inhibition [34]: < 50%; Vd [35]: 2.1 L/kg; inhibition [36]: < 50%; inhibition [37]: < 50%; half-life [38]: 4.6 h; inhibition [39]: < 50%; inhibition (INH) (Rattus norvegicus [40]): 50%; clearance [41]: 0.72 L/h/kg
